Numbers after ± are expanded uncertainties.
Experiments:
[1] = xn = mol fraction of the nth substance listed; details: 100 kPa, Liquid; for speed of sound: Frequency=3 MHz, Sing-around technique in a fixed-path interferometer; for mass density: Vibrating tube method
[2] = excess molar enthalpy (molar enthalpy of mixing); xn = mol fraction of the nth substance listed; details: 308.15 K, 100 kPa, Liquid, Calvet calorimetry

O=C1CCCCCC1 [cycloheptanone] + C1COCCO1
[1]
Details | mass density, 293.15 K [kg/m3] | mass density, 298.15 K [kg/m3] | mass density, 303.15 K [kg/m3] | mass density, 308.15 K [kg/m3] | speed of sound, 293.15 K [m/s] | speed of sound, 298.15 K [m/s] | speed of sound, 303.15 K [m/s] | speed of sound, 308.15 K [m/s]
x2 = 0.0954 | 957.02 ± 1 | 952.54 ± 1 | 948.07 ± 1 | 943.61 ± 1 | 1466.3 ± 1.6 | 1444.4 ± 1.6 | 1422.1 ± 1.6 | 1399.7 ± 1.6
x2 = 0.1589 | 960.61 ± 1 | 956.03 ± 1 | 951.46 ± 1 | 946.89 ± 1 | 1459.2 ± 1.6 | 1437.4 ± 1.6 | 1415.3 ± 1.6 | 1393 ± 1.6
x2 = 0.2184 | 964.09 ± 1 | 959.46 ± 1 | 954.81 ± 1 | 950.18 ± 1 | 1452.6 ± 1.6 | 1430.9 ± 1.6 | 1408.9 ± 1.6 | 1386.7 ± 1.6
x2 = 0.2555 | 966.35 ± 1 | 961.68 ± 1 | 956.99 ± 1 | 952.32 ± 1 | 1448.6 ± 1.6 | 1426.9 ± 1.6 | 1404.9 ± 1.6 | 1382.8 ± 1.6
x2 = 0.3019 | 969.25 ± 1 | 964.56 ± 1 | 959.82 ± 1 | 955.1 ± 1 | 1443.6 ± 1.6 | 1421.9 ± 1.6 | 1400 ± 1.6 | 1377.9 ± 1.6
x2 = 0.3487 | 972.3 ± 1 | 967.57 ± 1 | 962.78 ± 1 | 958.02 ± 1 | 1438.6 ± 1.6 | 1416.9 ± 1.6 | 1395.1 ± 1.6 | 1373 ± 1.6
x2 = 0.3814 | 974.5 ± 1 | 969.75 ± 1 | 964.92 ± 1 | 960.13 ± 1 | 1435.1 ± 1.6 | 1413.4 ± 1.6 | 1391.6 ± 1.6 | 1369.6 ± 1.6
x2 = 0.4324 | 978.07 ± 1 | 973.27 ± 1 | 968.38 ± 1 | 963.54 ± 1 | 1429.7 ± 1.6 | 1408 ± 1.6 | 1386.3 ± 1.6 | 1364.3 ± 1.6
x2 = 0.4879 | 982.15 ± 1 | 977.29 ± 1 | 972.33 ± 1 | 967.42 ± 1 | 1423.8 ± 1.6 | 1402.2 ± 1.6 | 1380.5 ± 1.6 | 1358.5 ± 1.6
x2 = 0.5219 | 984.76 ± 1 | 979.85 ± 1 | 974.85 ± 1 | 969.89 ± 1 | 1420.3 ± 1.6 | 1398.7 ± 1.6 | 1377 ± 1.5 | 1355 ± 1.5
x2 = 0.5723 | 988.81 ± 1 | 983.82 ± 1 | 978.74 ± 1 | 973.7 ± 1 | 1415 ± 1.5 | 1393.4 ± 1.5 | 1371.8 ± 1.5 | 1349.9 ± 1.5
x2 = 0.6149 | 992.39 ± 1 | 987.32 ± 1 | 982.17 ± 1 | 977.06 ± 1 | 1410.5 ± 1.5 | 1388.9 ± 1.5 | 1367.4 ± 1.5 | 1345.5 ± 1.5
x2 = 0.6687 | 997.15 ± 1 | 991.96 ± 1 | 986.73 ± 1 | 981.52 ± 1 | 1404.8 ± 1.5 | 1383.3 ± 1.5 | 1361.7 ± 1.5 | 1339.9 ± 1.5
x2 = 0.7104 | 1001 ± 1 | 995.75 ± 1 | 990.44 ± 1 | 985.15 ± 1 | 1400.4 ± 1.5 | 1378.9 ± 1.5 | 1357.4 ± 1.5 | 1335.6 ± 1.5
x2 = 0.7489 | 1004.7 ± 1 | 999.41 ± 1 | 994.03 ± 1 | 988.66 ± 1 | 1396.3 ± 1.5 | 1374.7 ± 1.5 | 1353.3 ± 1.5 | 1331.5 ± 1.5
x2 = 0.7919 | 1009.2 ± 1 | 1003.7 ± 1 | 998.23 ± 1 | 992.77 ± 1 | 1391.6 ± 1.5 | 1370.1 ± 1.5 | 1348.6 ± 1.5 | 1326.9 ± 1.5
x2 = 0.8475 | 1015.1 ± 1 | 1009.5 ± 1 | 1004 ± 1 | 998.45 ± 1 | 1385.4 ± 1.5 | 1363.9 ± 1.5 | 1342.5 ± 1.5 | 1320.7 ± 1.5
x2 = 0.9018 | 1021.3 ± 1 | 1015.6 ± 1 | 1010.1 ± 1 | 1004.4 ± 1 | 1379.3 ± 1.5 | 1357.8 ± 1.5 | 1336.3 ± 1.5 | 1314.5 ± 1.5

[2]
Details | excess molar enthalpy [kcal/mol]
x2 = 0.0726 | 0.00727 ± 0.000263
x2 = 0.1258 | 0.0119 ± 0.000359
x2 = 0.1769 | 0.0154 ± 0.000406
x2 = 0.2252 | 0.0187 ± 0.000478
x2 = 0.2786 | 0.0213 ± 0.000526
x2 = 0.3286 | 0.0234 ± 0.000574
x2 = 0.3746 | 0.0247 ± 0.000598
x2 = 0.4282 | 0.0255 ± 0.000621
x2 = 0.4712 | 0.0258 ± 0.000621
x2 = 0.5232 | 0.0254 ± 0.000621
x2 = 0.5725 | 0.0247 ± 0.000598
x2 = 0.6235 | 0.0233 ± 0.000574
x2 = 0.6762 | 0.0212 ± 0.000526
x2 = 0.7256 | 0.0191 ± 0.000478
x2 = 0.7716 | 0.0166 ± 0.00043
x2 = 0.8125 | 0.0141 ± 0.000382
x2 = 0.8682 | 0.0101 ± 0.000311
x2 = 0.9129 | 0.007 ± 0.000263

From the NIST ThermoML archive (doi:10.1021/acs.jced.6b00606)
